Experimental findings from PubChem BioAssay (NCI) are described below.

Molecules are shown by their SMILES.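 Dose response: 5 concentrations. Exposure: 48 h. Format: 96-well plates. Endpoint: linear interpolation; highest concentration if not reached. TGI is the concentration that stops growth completely.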

For one assay, the system named is HL-60(TB) leukemia. The assay is described as follows: NCI tumour cell line growth inhibition, 48 h.
Molecule `CCOC(=O)CSc1c(C(=O)OCC)c(=O)n(-c2ccccc2)c(=S)n1-c1ccccc1` gave a TGI of 47.4 µM.
For the molecule `COC(CCC[N+](C)(C)C)CC[N+](C)(C)C` (stereo not given), the TGI was more than 100 µM.
`Cc1ccccc1C(=O)N1CCc2c([nH]c3ccccc23)C1` displayed a TGI of 39.2 µM.
Regarding `NC(=O)NCCCC(NC(=O)OCCCCn1ccc(=O)[nH]c1=O)C(=O)O` (stereo not given), the TGI is more than 100 µM.
For `CCOC(=O)C(SCCO)C(C(=O)OCC)n1cnc2c(=O)[nH]c(NC(C)=O)nc21` (stereo not given), the TGI was more than 100 µM.
`c1ccc(-c2nc(-c3ccccc3SSc3ccccc3-c3nc(-c4ccccc4)nn3-c3ccccc3)n(-c3ccccc3)n2)cc1` displayed a TGI of more than 100 µM.
`Cc1ccc([N+](=O)[O-])cc1NC1=NCCO1` showed a TGI of more than 100 µM.
`CC(C)(C)N1CSC(=S)N(Cc2ccco2)C1` showed a TGI of 4.03 µM.
The same measure, in the same setting: the same measure for `O=c1c2cc([N+](=O)[O-])cnc2sn1-c1ccc([N+](=O)[O-])cc1`: 64.2 µM; for `Cc1ccc(C(=O)O)cc1S(=O)(=O)Nn1cnc2ccc(S(=O)(=O)Nc3ccccc3C(=O)O)cc2c1=O`: more than 100 µM; for `S=C1Nc2ccccc2SC1c1ccccc1` (stereo not given): more than 100 µM.
As to `N#CC1(C#N)N[C@@H](c2ccsc2)[C@H]2C(=O)N(c3ccccc3)C(=O)[C@H]21`, the TGI was 42 µM.

The next assay concerns SR leukemia. Put plainly: NCI tumour cell line growth inhibition, 48 h.
Take `CCCCCCc1cc2cc(-c3csc(CC#N)n3)c(=O)oc2cc1O`: the TGI is more than 100 µM.
`CN1CCN(C2=NCCO2)CC1` had a TGI of more than 100 µM.
Still for that read-out and setting: the same measure for `COc1ccc(-c2cc(O)c3nc4ccccc4n3c2)cc1`: more than 100 µM; for `O=C1CSC(c2ccc(Cl)cc2)N1c1ccc(Oc2ccc(Cl)cc2)c(Cl)c1` (stereo not given): 41 µM; for `Nn1c(-c2ccccc2)nn(C(=O)c2ccccc2)c1=O`: more than 100 µM.
In the case of `CN1CCc2cc(N)cc3c2C1Cc1ccc(O)c(O)c1-3` (stereo not given), the TGI is more than 100 µM.
`CC1(C)N=[N+]([O-])C1(C)C` displayed a TGI of more than 100 µM.
Consider `COc1ccc2cc(NC(=O)N/N=C\c3ccc([N+](=O)[O-])cc3)ccc2c1`, for which the TGI is more than 100 µM.
In the case of `COC(=O)c1c(C)cccc1C1CN=NC12Cc1ccc(C)cc1C2=O` (stereo not given), the TGI was more than 100 µM.
`COC(=O)C1SC(SC)=NC12c1ccccc1Nc1ccccc12` (stereo not given) came in with a TGI of 53.4 µM.
`CCOC(=O)CSc1c(C(=O)OCC)c(=O)n(-c2ccccc2)c(=S)n1-c1ccccc1` registered a TGI of more than 100 µM.
In the case of `COC(CCC[N+](C)(C)C)CC[N+](C)(C)C` (stereo not given), the TGI is more than 100 µM.
Turning to `Cc1ccccc1C(=O)N1CCc2c([nH]c3ccccc23)C1`, the TGI was determined as 50 µM.
As for `NC(=O)NCCCC(NC(=O)OCCCCn1ccc(=O)[nH]c1=O)C(=O)O` (stereo not given), the TGI is more than 100 µM.
`CCOC(=O)C(SCCO)C(C(=O)OCC)n1cnc2c(=O)[nH]c(NC(C)=O)nc21` (stereo not given) displayed a TGI of more than 100 µM.
In turn, `c1ccc(-c2nc(-c3ccccc3SSc3ccccc3-c3nc(-c4ccccc4)nn3-c3ccccc3)n(-c3ccccc3)n2)cc1` displayed a TGI of more than 100 µM.
Take `Cc1ccc([N+](=O)[O-])cc1NC1=NCCO1`: the TGI was more than 100 µM.
In turn, `CC(C)(C)N1CSC(=S)N(Cc2ccco2)C1` gave a TGI of 3.55 µM.
In turn, `O=c1c2cc([N+](=O)[O-])cnc2sn1-c1ccc([N+](=O)[O-])cc1` registered a TGI of 54.6 µM.
For `Cc1ccc(C(=O)O)cc1S(=O)(=O)Nn1cnc2ccc(S(=O)(=O)Nc3ccccc3C(=O)O)cc2c1=O`, the TGI was more than 100 µM.
Same read-out and setting: next, `S=C1Nc2ccccc2SC1c1ccccc1` (stereo not given): more than 100 µM.
With `N#CC1(C#N)N[C@@H](c2ccsc2)[C@H]2C(=O)N(c3ccccc3)C(=O)[C@H]21`, the TGI turned out to be 78.7 µM.

A further assay concerns KM12 colon. Put plainly: NCI tumour cell line growth inhibition, 48 h.
`CCCCCCc1cc2cc(-c3csc(CC#N)n3)c(=O)oc2cc1O` displayed a TGI of more than 100 µM.
In the case of `CN1CCN(C2=NCCO2)CC1`, the TGI was more than 100 µM.
`COc1ccc(-c2cc(O)c3nc4ccccc4n3c2)cc1` displayed a TGI of more than 100 µM.
Consider `O=C1CSC(c2ccc(Cl)cc2)N1c1ccc(Oc2ccc(Cl)cc2)c(Cl)c1` (stereo not given), for which the TGI turned out to be 29.4 µM.
Same read-out and setting: the same measure for `Nn1c(-c2ccccc2)nn(C(=O)c2ccccc2)c1=O`: more than 100 µM; for `CN1CCc2cc(N)cc3c2C1Cc1ccc(O)c(O)c1-3` (stereo not given): more than 100 µM.
With `CC1(C)N=[N+]([O-])C1(C)C`, the TGI is more than 100 µM.
The molecule `COc1ccc2cc(NC(=O)N/N=C\c3ccc([N+](=O)[O-])cc3)ccc2c1` showed a TGI of more than 100 µM.
Turning to `COC(=O)c1c(C)cccc1C1CN=NC12Cc1ccc(C)cc1C2=O` (stereo not given), the TGI was more than 100 µM.
For the molecule `COC(=O)C1SC(SC)=NC12c1ccccc1Nc1ccccc12` (stereo not given), the TGI is more than 100 µM.
`CCOC(=O)CSc1c(C(=O)OCC)c(=O)n(-c2ccccc2)c(=S)n1-c1ccccc1`: the TGI is more than 100 µM.
For the molecule `Cc1ccccc1C(=O)N1CCc2c([nH]c3ccccc23)C1`, the TGI amounted to 87 µM.
In turn, `NC(=O)NCCCC(NC(=O)OCCCCn1ccc(=O)[nH]c1=O)C(=O)O` (stereo not given) displayed a TGI of more than 100 µM.
`CCOC(=O)C(SCCO)C(C(=O)OCC)n1cnc2c(=O)[nH]c(NC(C)=O)nc21` (stereo not given) displayed a TGI of more than 100 µM.
`c1ccc(-c2nc(-c3ccccc3SSc3ccccc3-c3nc(-c4ccccc4)nn3-c3ccccc3)n(-c3ccccc3)n2)cc1` returned a TGI of more than 100 µM.
On the same count and under the same terms, the same measure for `Cc1ccc([N+](=O)[O-])cc1NC1=NCCO1`: more than 100 µM; for `CC(C)(C)N1CSC(=S)N(Cc2ccco2)C1`: 14.3 µM.
`O=c1c2cc([N+](=O)[O-])cnc2sn1-c1ccc([N+](=O)[O-])cc1` gave a TGI of 62.4 µM.
As to `Cc1ccc(C(=O)O)cc1S(=O)(=O)Nn1cnc2ccc(S(=O)(=O)Nc3ccccc3C(=O)O)cc2c1=O`, the TGI was more than 100 µM.
As for `S=C1Nc2ccccc2SC1c1ccccc1` (stereo not given), the TGI is more than 100 µM.
`N#CC1(C#N)N[C@@H](c2ccsc2)[C@H]2C(=O)N(c3ccccc3)C(=O)[C@H]21` came in with a TGI of more than 100 µM.

The test system of a further assay is DU-145 prostate. Put plainly: NCI tumour cell line growth inhibition, 48 h.
`CCCCCCc1cc2cc(-c3csc(CC#N)n3)c(=O)oc2cc1O` registered a TGI of more than 100 µM.
For `CN1CCN(C2=NCCO2)CC1`, the TGI was more than 100 µM.
In the case of `COc1ccc(-c2cc(O)c3nc4ccccc4n3c2)cc1`, the TGI is more than 100 µM.
Still for that read-out and setting: next, `O=C1CSC(c2ccc(Cl)cc2)N1c1ccc(Oc2ccc(Cl)cc2)c(Cl)c1` (stereo not given): 27.2 µM; `Nn1c(-c2ccccc2)nn(C(=O)c2ccccc2)c1=O`: more than 100 µM.
The molecule `CN1CCc2cc(N)cc3c2C1Cc1ccc(O)c(O)c1-3` (stereo not given) had a TGI of more than 100 µM.
The same measure, in the same setting: next, `CC1(C)N=[N+]([O-])C1(C)C`: more than 100 µM.
Molecule `COc1ccc2cc(NC(=O)N/N=C\c3ccc([N+](=O)[O-])cc3)ccc2c1` yielded a TGI of more than 100 µM.
`COC(=O)c1c(C)cccc1C1CN=NC12Cc1ccc(C)cc1C2=O` (stereo not given) had a TGI of more than 100 µM.
In the case of `COC(=O)C1SC(SC)=NC12c1ccccc1Nc1ccccc12` (stereo not given), the TGI is more than 100 µM.
Regarding `CCOC(=O)CSc1c(C(=O)OCC)c(=O)n(-c2ccccc2)c(=S)n1-c1ccccc1`, the TGI was more than 100 µM.
On to `COC(CCC[N+](C)(C)C)CC[N+](C)(C)C` (stereo not given), for which the TGI was more than 100 µM.
Take `Cc1ccccc1C(=O)N1CCc2c([nH]c3ccccc23)C1`: the TGI was 84.5 µM.
Molecule `NC(=O)NCCCC(NC(=O)OCCCCn1ccc(=O)[nH]c1=O)C(=O)O` (stereo not given) displayed a TGI of more than 100 µM.
`CCOC(=O)C(SCCO)C(C(=O)OCC)n1cnc2c(=O)[nH]c(NC(C)=O)nc21` (stereo not given) displayed a TGI of more than 100 µM.
